{"source": "patent US20190316085A1", "about": "“Methods Of T-Lymphocyte Expansion” (Cambridge Enterprise Limited, priority 2015, published 2019)", "key": {"[1]": {"system": "OT-I CD8^+CD45.1^+ T-lymphocytes", "assay": "In vivo memory recall experiment (adoptive transfer, vaccination)", "set-up": "species or system mouse", "settings": "0.5 mM, 7 days with IL-2 (FIGS. 13, 16, 17)", "method": "FIGS. 13B and 13C show representative flow cytometry plots of (B) CD8^+CD45.1^+ (C) or Kb/SIINFEKL Pentamer^+CD45.1^+ T-lymphocytes, in the spleens of vaccinated litter mate CD45.2 mice, 37 days after adoptive transfer of SIINFEKL-activated OT-I CD8^+CD45.1^+ T-lymphocytes, expanded with 0.5 mM S-2HG-octyl ester, 0.5 mM R-2HG-octyl ester or vehicle in the presence of IL-2 for 7 days. FIGS. 13D-F show (13D) the number of recovered CD45.1^+CD8^+ T-lymphocytes per spleen and (13E) % CD45.1^+ cells of the total CD8^+ population in each spleen or (13F) number of recovered Kb/SIINFEKL Pentamer^+CD45.1^+ T-lymphocytes per spleen 7 days after vaccination (37 days after the CD8+ T-cells were transferred into the mice). n=6 mice per group and error bars denote the s.e.m.\nTotal splenocytes from OT-1 CD45.1^+ mice were activated with 1000 nM SIINFEKL peptide in the presence of IL-2 and vehicle, 0.5 mM S-2HG-octyl ester or 0.5 mM R-2HG-octyl ester for 7 days. 1 million CD45^+CD8^+ cells were then injected intravenously into C57/B6 wild type CD45.2^+ host mice. 30 days later, host mice were vaccinated i.p. with SIINFEKL-loaded dendritic cells. 7 days later, spleens were harvested from host mice and the presence of CD45.1^+CD8^+ and Kb/SIINFEKL Pentamer+cells was determined by flow cytometry. Absolute numbers of cells were determined with the use of counting beads (CountBright, Life Technologies). Dendritic cells were prepared from bone marrow extracted from wild type C57/B6 mice. Bone marrow derived cells were cultured in non-TC treated petri dishes in RPMI-1640 medium containing 2 mM glutamine, 10% FBS, 25 mM HEPES, pH 7.2, 1% penicillin-streptomycin, 55 μM […] supplemented 20 ng/ml mGM-CSF (R&D Systems). After 8 days of culture, dendritic cells were activated with 1 μg/ml LPS (Sigma) for 24 h. The maturation of dendritic cells was confirmed by flow cytometry using the following markers: MHC class II-APC, CD11b-AF488, CD11c-AF488 and CD86-PE/Cy7 (Biolegend). Mature dendritic cells were then loaded with 2 μM SIINFEKL peptide at 37° C. for 1 hour. After peptide loading, dendritic cells were detached with 3 mM EDTA in PBS for 5-10 min at 37° C. and washed with PBS. For vaccination, 1 million peptide-loaded dendritic cells were injected i.p. per mouse in 100 μl PBS."}, "[2]": {"system": "CD8^+ T-lymphocytes", "assay": "Flow cytometry of CD44 and CD62L surface expression", "type": "cell-based, mouse", "settings": "0.5 mM, with IL-2; antigen specific (OT-I) and polyclonal CD8+ T-lymphocytes", "from_the_text": "Data are representative of n=4 individual mice.\nData are representative of 3 mice per genotype.\nData are representative of 2 mice per genotype.\nData are representative of n=3 individual mice.\nCells were stained and acquired on a Fortessa (BD Biosciences). […] For staining of nuclear-located marker Eomes, the Transcription Factor Staining Buffer Set (eBioscience) was used, according to the manufacturer's instructions. For staining of intracellular cytokines, OT-I cells were re-stimulated with […] peptide for 4 h with GolgiStop solution (BD). For ^1H-NMR experiments, CD8^+ T-lymphocytes were sorted from total splenocytes by immunostaining with anti-mouse CD8-AF647 (Biolegend) on a MoFlo (Beckman Coulter). Cells were then activated and cultured as described above."}, "[3]": {"system": "CD8^+ T-lymphocytes", "assay": "Flow cytometric characterisation of phenotypic markers", "type": "cell-based, mouse", "settings": "7 days", "from_the_text": "Gated on live CD8^+ cells. Each dot represents an individual mouse.\nAssociated statistics are shown and each pair of dots represents an individual mouse. Gated on live, CD8^+GFP^+ cells.\nCells were stained and acquired on a Fortessa (BD Biosciences). The following fluorophores and fluorophore-conjugated antibodies were used: anti-CD62L (Biolegend, MEL-14), anti-CD44 (Biolegend, IM7), anti-CD8a (Biolegend, 53-6.7), anti-CD45.1 (Biolegend, A20), anti-CD45.2 (Biolegend, 104), anti-CD127 (Biolegend, A7R34), anti-KLRG1 (Biolegend, 2F1/KLRG1), anti-CD19 (Biolegend, 6D5), anti-Bcl-2 (Biolegend, BCL/10C4), Eomes (eBioscience, Danlimag), PD-1 (Biolegend, 29F.1A12), […], H-2Kb/SIINFEKL Pentamer-PE (Proimmune, F093-2A), CFSE (Life Technologies), LIVE/DEAD Violet (Life Technologies), PI-AnnexinV (Biolegend, 640928), anti-Bcl-xl-PE (Cell Signalling Technologies, 54H6). For staining of nuclear-located marker Eomes, the Transcription Factor Staining Buffer Set (eBioscience) was used, according to the manufacturer's instructions. For staining of intracellular cytokines, OT-I cells were re-stimulated with SIINFEKL peptide for 4 h with GolgiStop solution (BD). For ^1H-NMR experiments, CD8^+ T-lymphocytes were sorted from total splenocytes by immunostaining with anti-mouse CD8-AF647 (Biolegend) on a MoFlo (Beckman Coulter). Cells were then activated and cultured as described above. For staining of human T cells, CD8^+ T cells were incubated at 37 C for 30 minutes in the presence of anti-CCR7 antibody (eBioscience 12-1979-41), followed by staining with anti-CD45RO antibody (Biolegend, UCHL1)."}, "[4]": {"system": "OT-I CD8^+ T-lymphocytes", "assay": "In vivo persistence experiments", "set-up": "species or system mouse", "method": "Flow cytomotery plots are gated on live cells.\nTotal splenocytes from OT-I CD45.1^+ mice were activated with 1000 nM SIINFEKL peptide in the presence of IL-2 and vehicle or 300 μM S-2HG-octyl ester. After 48 h CD8^+ T-cells were purified by negative selection and cultured for 7 days in the presence of IL-2 and vehicle or 300 μM S-2HG-octyl ester. 1 million CD45.1^+CD8^+ cells were then injected intravenously into C57BL/6J wild type CD45.2.2 host mice. 30 days later, host mice were sacrificed to assess the persistence of transferred cells in the spleen. Absolute numbers of cells were determined with the use of counting beads (CountBright, Life Technologies)."}, "[5]": {"system": "CD8^+ T-lymphocytes", "assay": "qRT-PCR of differentiation, memory and pluripotency associated genes", "type": "cell-based, mouse", "settings": "0.5 mM, 1 day or 7 days, with IL2", "method": "FIGS. 8E, 8F and 8G show expression of II2(8E), Ifng (8F), and Eomes (8G) mRNA in CD8^+ T-lymphocytes activated for 48 h with αCD3+αCD28 antibodies and then expanded for a further 2 days in the presence of IL-2. Cells were then treated for either 24 h or 7 days with or without 0.5 mM S-2HG-octyl ester or R-2HG-octyl ester. n≥4 mice per group.\nActivated CD8^+ T-lymphocytes were treated with 0.5 mM of either S-2HG-octyl ester or R-2HG-octyl ester for 1 day or 7 days in the presence of IL2. The induction seen with R-2HG-octyl ester is weaker than with S-2HG-octyl ester. Each dot represents an individual donor mouse, n=4 mice. error bars denote the s.d.\nRNA was isolated using the RNeasy kit (Qiagen). 1 μg of RNA was used for cDNA synthesis with the First-Strand Synthesis kit (Invitrogen). All samples were run in technical triplicates using a StepOnePlus system (Applied Biosystems) with SYBR green."}, "[6]": {"system": "EG7-OVA tumours", "assay": "Adoptive cellular immunotherapy experiments", "type": "in vivo, mouse", "settings": "i.v.", "method": "Mice were lymphodepleted with sub-lethal irradiation before receivening intravenous injection of OT-I CD8^+ T-lymphocytes. Error bars denote s.e.m. *p<0.05, ns=non-significant.\nError bars denote s.e.m. *p<0.05, ns=non-significant.\nFor adoptive cell therapy experiments, OT-I CD8^+ T-lymphocytes were activated with 1000 nM SIINFEKL peptide in the presence of IL-2 and vehicle or 300 μM S-2HG-octyl ester. After 48 h CD8^+ T-cells were purified by negative selection and cultured for a further 7 days in the presence of IL-2 and vehicle or 300 μM S-2HG-octyl ester. OT-I cells were transferred intravenously into tumour-bearing C57BL/6J lymphodepleted or lymphoreplete mice with 9-12 day established EG7-OVA tumours."}, "[7]": {"system": "OT-I CD8^+ T-lymphocytes", "assay": "Homeostatic proliferation after co-transfer into sub-lethally irradiated hosts", "type": "in vivo, mouse", "method": "CD45.1.1 or CD45.1.2 OT-I CD8^+ T-lymphocytes were activated with 1000 nM SIINFEKL peptide and cultured with or without 300 μM S-2HG-octyl ester for 9 days. Cells from each group were mixed 1:1 and labelled with CFSE prior to transfer into sub-lethally irradiated CD45.2.2 mice. 7 days later, mice were sacrificed and the presence of CD451.1 and CD45.1.2 CD8^+ T-lymphocytes was enumerated in spleen by flow cytometry. Representative flow cytometry plots are shown for each pool before and after adoptive transfer. Flow cytometry plots show viable CD8^+ cells.\nTotal splenocytes from OT-I CD45.1/CD45.1 and OT-I CD45.1/CD45.2 mice were activated with 1000 nM SIINFEKL peptide in the presence of IL-2 and vehicle or 300 μM S-2HG-octyl ester. After 48 h CD8^+ T-cells were purified by negative selection and cultured for a further 7 days in the presence of IL-2 and vehicle or 300 μM S-2HG-octyl ester. Vehicle and S-2HG-treated cells were then mixed 1:1 and labelled with CFSE, followed by intravenous injection into sub-lethally irradiated CD45.2/CD45.2 hosts. 7 days later, spleens were harvested and analysed by flow cytometry. Absolute numbers of cells were determined with the use of counting beads (CountBright, Life Technologies)"}, "[8]": {"system": "OT-I CD8^+ T-lymphocytes", "assay": "Recall experiments with co-transferred cells", "type": "in vivo, mouse", "settings": "cells pre-treated with 300 μM S-2HG-octyl ester; spleen, lymphnodes, liver, day 37 post transfer", "method": "CD45.1.1 or CD45.1.2 OT-I CD8^+ T-lymphocytes were activated with 1000 nM SIINFEKL peptide and cultured with or without 300 μM S-2HG-octyl ester for 9 days. Cells from each group were mixed 1:1 prior to transfer into CD45.2.2 mice. 30 days later, these recipient mice were vaccinated with SIINFEKL-loaded dendritic cells to induce recall and the presence of CD451.1 and CD45.1.2 CD8^+ T-lymphocytes was enumerated in spleen, lymphnodes and liver by flow cytometry 7 days later."}, "[9]": {"settings": "500 μM S-2HG-octyl ester, HIF-1α-independent"}}}
{"smiles": "COC(=O)CCC(=O)OC", "note": "[dimethylsuccinate]", "values": [{"measurement": "formation of memory cells after in vitro treatment of CD8+ T-cells", "setting": "[1]", "value": "induces the formation"}, {"measurement": "formation of a CD62L^high CD44^high population", "setting": "[2]", "value": "induce the formation"}]}
{"smiles": "O=C(O)CC[C@H](O)C(=O)O", "note": "[S-2HG, S-2-hydroxyglutarate]", "values": [{"measurement": "proportion of KLRG1^High cells", "setting": "[3]; 300 μM S-2HG-octyl ester, 21% oxygen, empty or L2hgdh-FLAG vector", "value": "decreased"}, {"measurement": "PD-1 expression", "setting": "[3]; 500 μM S-2HG-octyl ester", "value": "less"}, {"measurement": "41BB expression", "setting": "[3]; [9]", "value": "more"}, {"measurement": "CD44 expression", "setting": "[3]; [9]", "value": "more"}, {"measurement": "CD127 expression", "setting": "[3]; [9]", "value": "more"}, {"measurement": "Eomes expression (flow cytometry)", "setting": "[3]; [9]", "value": "more"}, {"measurement": "persistence of adoptively transferred cells", "setting": "[4]; cells pre-treated with 300 μM S-2HG-octyl ester, spleen, 30 days after transfer", "value": "dramatically enhanced persistence"}, {"measurement": "Bcl-2 level of recovered cells relative to naïve cells", "setting": "[4]; day 30 after transfer", "value": "elevated"}, {"measurement": "CD44 level of recovered cells relative to naïve cells", "setting": "[4]; day 30 after transfer", "value": "elevated"}, {"measurement": "CD127 level of recovered cells relative to naïve cells", "setting": "[4]; day 30 after transfer", "value": "elevated"}, {"measurement": "expression of pluripotency associated genes (Oct3/4, Sox2, Nanog, Klf4)", "setting": "[5]", "value": "induces the expression"}, {"measurement": "control of tumour growth in lymphodepleted tumour-bearing mice", "setting": "[6]; 0.7×10^6 OT-I cells cultured with S-2HG-octyl ester, 12 day tumours", "value": "more proficient at controlling tumour growth"}, {"measurement": "control of tumour growth in lymphoreplete tumour-bearing mice", "setting": "[6]; 1.0×10^6 OT-I cells cultured with S-2HG-octyl ester, 9 day tumours", "value": "more proficient at controlling tumour growth"}, {"measurement": "homeostatic proliferation of transferred cells", "setting": "[7]; cells pre-treated with 300 μM S-2HG-octyl ester 9 days, 7 days after transfer, spleen", "value": "greater homeostatic proliferation"}, {"measurement": "transferred cells dividing >5 times in vivo", "setting": "[7]; cells pre-treated with 300 μM S-2HG-octyl ester, CFSE, day 7", "value": "more cells dividing >5 times"}, {"measurement": "recall response to vaccination with SIINFEKL-loaded dendritic cells", "setting": "[8]", "value": "superior recall response"}]}
{"smiles": "CCCCCCCCOC(=O)C(=O)CCC(=O)O", "note": "[α-ketoglutarate octyl ester, reference compound]", "values": [{"measurement": "formation of memory cells after in vitro treatment of CD8+ T-cells", "setting": "[1]", "value": "does not induce the formation"}, {"measurement": "formation of memory cells after in vitro treatment of CD8+ T-cells", "setting": "[1]; listed as alpha ketoglutarate", "value": "does not provide good activity"}, {"measurement": "formation of a CD62L^high CD44^high population", "setting": "[2]", "value": "not observed"}]}
